Reference: US9550763B2, “Heterocyclic ring and carbocyclic derivative” (Shionogi & Co., Ltd., priority 2012, dated 2017)

target: human P2X3 receptor (Homo sapiens (Human), UniProt P56373); experiment: Evaluation of human P2X3 receptor inhibitory activity (Test Example 1-2, FLIPR 384, 384-well, 150 nM ATP); format: cell-based; conditions: C6BU-1 cell transfected with human P2X3 receptor gene; method of Test Example 1-2 (compounds I-301 to I-483); read-out: IC50 (human P2X3 receptor inhibitory activity)
Description: Stably expressing cell line (C6BU-1 cell transfected with human P2X3 receptor gene (GenBank accession number Y07683) was used. The cells were seeded in a 384-well microtiter plate at a concentration of 3000 cells/well and cultured in the medium (7.0% fetal bovine serum, 7.0% horse serum, 1% antibiotic and antifungal in DMEM) for one day at 37° C. under 5% carbon dioxide atmosphere. The medium was replaced with 4 μM Fluo-3-AM solution (20 mM HEPES, […], 5.27 mM KCl, 0.9 mM MgCl2, 1.26 mM CaCl2, 5.6 mM D-glucose, 2.5 mM probenecid, 0.5% BSA, and 0.04% Pluronic F-127, pH 7.5) and incubated at 37° C. under 5% dioxide carbon atmosphere for one hour. The plate was washed with washing buffer (20 mM HEPES, 137 mM NaCl, 5.27 mM KCl, 0.9 mM MgCl2, 1.26 mM CaCl2, 5.6 mM D-glucose, 2.5 mM probenecid, pH7.5), and each well was added with 20 μL of this buffer. The plate was placed in High-Throughput Screening System FLIPR 384 (Molecular Device Co.). Measurement of fluorescence intensity by FLIPR 384 was started, and 20 μL of DMSO solutions containing different concentrations of the test compound as prepared by dilution with dilution buffer (20 mM HEPES, 137 mM NaCl, 5.27 mM KCl, 0.9 mM MgCl2, 1.26 mM CaCl2, 5.6 mM D-glucose, 2.5 mM probenecid, 0.1% Pluronic F-127, pH 7.5) were dispensed to each well through the built-in automatic dispenser. Five minutes after, 150 nM ATP solution (25 μL) prepared by dilution with the dilution buffer was dispensed through the built-in automatic dispenser, and the measurement of fluorescence intensity was continued for 4 min. For each well, the specific maximum fluorescence intensity was calculated as the ratio of the maximum fluorescence intensity after addition of the ATP solution to the fluorescence intensity at the starting of the measurement. The 50% inhibitory concentration (IC50) was calculated under the assumption that the specific maximum fluorescence intensity without test compound is 0% inhibition and that the specific maximum fluorescence intensity when the dilution buffer was added in place of ATP solution is 100% inhibition, to evaluate the inhibitory activity of the test compound. The specific maximum fluorescence intensity and IC50 were calculated using Spotfire (Science & Technology Systems, Inc.)
The data of the compounds I-001 to I-300 are the results by the method mentioned in Test Example 1-1, and the data of the compounds I-301 to I-483 are the results by the method mentioned in Test Example 1-2.

Sequence of human P2X3 receptor (P56373 whole entry): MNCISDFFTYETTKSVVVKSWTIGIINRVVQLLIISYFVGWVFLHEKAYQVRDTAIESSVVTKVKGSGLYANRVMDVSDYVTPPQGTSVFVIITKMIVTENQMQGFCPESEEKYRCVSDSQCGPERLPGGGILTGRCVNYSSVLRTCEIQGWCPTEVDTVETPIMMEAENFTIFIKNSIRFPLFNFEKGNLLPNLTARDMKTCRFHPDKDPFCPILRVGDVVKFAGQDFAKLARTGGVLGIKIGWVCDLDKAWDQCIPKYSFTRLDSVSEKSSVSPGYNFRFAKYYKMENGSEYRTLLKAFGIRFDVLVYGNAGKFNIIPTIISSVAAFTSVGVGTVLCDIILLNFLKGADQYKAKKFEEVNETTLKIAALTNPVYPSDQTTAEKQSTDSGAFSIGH

`O=C(O)c1cccc(Oc2ccc(Nc3nc4ccccc4n3Cc3ccc(F)cc3)cc2)n1` [Compound I-470] and `O=C(O)c1cccc(Oc2ccc(/N=c3\[nH]ccc(=O)n3Cc3ccc(Cl)cc3)cc2)n1` [Compound I-448] cannot be ordered by IC50: less than 30000 nM for the first, less than 30000 nM for the second.

`O=C(O)c1cn(Cc2ccc(Cl)cc2)c2cc(Nc3ccc(Oc4ccc(F)cn4)cc3)ccc2c1=O` [Compound I-461] and `COC(=O)c1cccc(Oc2ccc(Nc3ccn(C(C)C)c(=O)c3Cc3ccc(Cl)cc3)cc2)n1` [Compound I-465, 3-(4-chloro-benzyl)-1-isopropyl-4-[4-(6-methoxycarbonyl-2-pyridyloxy)phenylamino]pyridin-2(1H)-one] cannot be ordered by IC50: less than 30000 nM for the first, less than 30000 nM for the second.

same assay, conditions: human P2X3 receptor in C6BU-1 cells; Test Example 1-2 (compounds I-301 to I-483); read-out: P2X3 IC50

In order of falling IC50:
1. Cc1c[nH]c2cc(Nc3ncc(NC(=O)C4CCOCC4)c(=O)n3Cc3ccc(Cl)cc3)ccc12 [Compound I-413]  897 nM
2. Cc1ccccc1Cn1cc(C(=O)NC2CCOCC2)c(=O)nc1Nc1ccc(Oc2cccc(F)n2)cc1 [Compound I-357]  781 nM
3. COC(=O)c1cccc(Oc2ccc(/N=c3\[nH]cc(C(F)(F)F)c(=O)n3Cc3ccc(Cl)cc3)cc2)n1 [Compound I-471]  683 nM
4. CCOC(=O)c1cnc(Oc2ccc(/N=c3\[nH]cc(C(C)C)c(=O)n3Cc3ccc(Cl)cc3)cc2)s1 [Compound I-410]  626 nM
5. COC(=O)c1cncc(Oc2ccc(/N=c3\[nH]cc(C(C)C)c(=O)n3Cc3ccc(Cl)cc3)cc2)c1 [Compound I-367]  471 nM
6. CCOc1cn(Cc2ccc(Cl)cc2)c(Nc2ccc(Oc3cccc(C#N)n3)cc2)nc1=O [Compound I-429]  441 nM
7. CCc1c[nH]c2cc(Nc3ncc(NC(=O)C4CCOCC4)c(=O)n3Cc3ccc(Cl)cc3)ccc12 [Compound I-416]  406 nM
8. CCn1c(=O)cc(Nc2ccc3nc(C(F)F)sc3c2)n(Cc2ccc(Cl)cc2)c1=O [Compound I-326]  328 nM
9. NC(=O)c1cccc(Oc2ccc(/N=c3\[nH]cc(N4CCCC4=O)c(=O)n3Cc3ccc(Cl)cc3)cc2)n1 [Compound I-335]  227 nM
10. CCCn1c(=O)c(F)c(Nc2ccc(Oc3cccc(C#N)n3)c(C)n2)n(Cc2ccc(Cl)cc2)c1=O [Compound I-301]  163 nM
11. O=C(NCc1ccco1)c1cn(Cc2ccc(Cl)cc2)c(Nc2ccc(Oc3cccc(F)n3)cc2)nc1=O [Compound I-369]  120 nM
12. COC(=O)c1nnc(-c2c[nH]/c(=N\c3ccc(Oc4ccon4)cc3)n(Cc3ccc(Cl)cc3)c2=O)o1 [Compound I-438]  109 nM
13. CCC(=O)Nc1c[nH]/c(=N\c2ccc(Oc3cc(C)cnn3)cc2)n(Cc2ccc(Cl)cc2)c1=O [Compound I-433]  99 nM
14. O=C(NCC(F)(F)F)c1c[nH]/c(=N\c2ccc(Oc3ccon3)cc2)n(Cc2ccc(Cl)cc2)c1=O [Compound I-452]  98 nM
15. Cc1cc(CNC(=O)c2cn(Cc3ccc(Cl)cc3)c(Nc3ccc(Oc4cccc(F)n4)cc3)nc2=O)no1 [Compound I-420]  88 nM
16. CNC(=O)CNC(=O)c1cn(Cc2ccc(Cl)cc2)c(Nc2ccc(Oc3cccc(F)n3)cc2)nc1=O [Compound I-430]  83 nM
17. CNC(=O)c1noc(-c2c[nH]/c(=N\c3ccc(Oc4ccon4)cc3)n(Cc3ccc(Cl)cc3)c2=O)n1 [Compound I-442]  80 nM
18. CCC(=O)Nc1c[nH]/c(=N\c2ccc(Oc3cccc(CCC(=O)O)c3)cc2)n(Cc2ccc(Cl)cc2)c1=O [Compound I-337]  76 nM
19. CC(=O)OCc1nnc(-c2c[nH]/c(=N\c3ccc(Oc4ccon4)cc3)n(Cc3ccc(Cl)cc3)c2=O)o1 [Compound I-348]  76 nM
20. Cc1nnc(-c2c[nH]/c(=N\c3ccc(Oc4ccon4)cc3)n(Cc3ccc(Cl)cc3)c2=O)o1 [Compound I-349]  73 nM
21. O=C(NCc1ncco1)c1cn(Cc2ccc(Cl)cc2)c(Nc2ccc(Oc3cccc(F)n3)cc2)nc1=O [Compound I-384]  60 nM
22. O=C(NCc1ccoc1)c1cn(Cc2ccc(Cl)cc2)c(Nc2ccc(Oc3cccc(F)n3)cc2)nc1=O [Compound I-419]  55 nM
23. O=c1c(-c2nnco2)c[nH]/c(=N\c2ccc(Oc3ccon3)cc2)n1Cc1ccc(Cl)cc1 [Compound I-439]  47 nM
24. O=C(NCCCO)c1cn(Cc2ccc(Cl)cc2)c(Nc2ccc(Oc3cccc(F)n3)cc2)nc1=O [Compound I-418]  45 nM
25. Cc1noc(C)c1NC(=O)c1cn(Cc2ccc(Cl)cc2)c(Nc2ccc(Oc3cccc(F)n3)cc2)nc1=O [Compound I-377]  37 nM
26. O=c1c(-c2nnc(CO)o2)c[nH]/c(=N\c2ccc(Oc3ccon3)cc2)n1Cc1ccc(Cl)cc1 [Compound I-399]  36 nM
27. O=c1c(Nc2ccon2)c[nH]/c(=N\c2ccc(Oc3ccc(F)cn3)cc2)n1Cc1ccc(Cl)cc1 [Compound I-318]  27 nM
28. O=C(Nc1cn[nH]c1)c1cn(Cc2ccc(Cl)cc2)c(Nc2ccc(Oc3cccc(F)n3)cc2)nc1=O [Compound I-395]  22 nM
29. O=C(N[C@@H]1CCOC1)c1cn(Cc2ccc(Cl)cc2)c(Nc2ccc(Oc3cccc(F)n3)cc2)nc1=O [Compound I-398]  22 nM
30. N#CCNC(=O)c1c[nH]/c(=N\c2ccc(Oc3ccon3)cc2)n(Cc2ccc(Cl)cc2)c1=O [Compound I-425]  21 nM
31. O=C(Nc1cc[nH]n1)c1cn(Cc2ccc(Cl)cc2)c(Nc2ccc(Oc3cccc(F)n3)cc2)nc1=O [Compound I-421]  17 nM
32. Cc1noc(-c2c[nH]/c(=N\c3ccc(Oc4cccc(C#N)n4)cc3)n(Cc3ccc(Cl)cc3)c2=O)n1 [Compound I-310]  16 nM
33. O=C(O)c1cccc(Oc2ccc(/N=c3\[nH]cc(Br)c(=O)n3Cc3ccc(Cl)cc3)cc2)n1 [Compound I-440]  15 nM
34. COCCn1c(=O)cc(Nc2ccc(Oc3cccc(C(=O)O)n3)c(C)n2)n(Cc2ccc(Cl)cc2)c1=O [Compound I-324]  14 nM
35. O=C(NC[C@H]1CCCO1)c1cn(Cc2ccc(Cl)cc2)c(Nc2ccc(Oc3cccc(F)n3)cc2)nc1=O [Compound I-387]  14 nM
36. CCCc1c[nH]/c(=N\c2ccc(Oc3cccc(C(=O)O)n3)cc2)n(Cc2ccc(Cl)cc2)c1=O [Compound I-436]  13 nM
37. Cc1noc(-c2c[nH]/c(=N\c3ccc(Oc4ccc(C(=O)O)nn4)cc3)n(Cc3ccc(Cl)cc3)c2=O)n1 [Compound I-317]  13 nM
38. CCC(=O)Nc1c[nH]/c(=N\c2ccc(Oc3cc(C)c(Cl)nn3)cc2)n(Cc2ccc(Cl)cc2)c1=O [Compound I-432]  12 nM
39. O=C(N[C@H]1COC[C@@H]1O)c1cn(Cc2ccc(Cl)cc2)c(Nc2ccc(Oc3cccc(F)n3)cc2)nc1=O [Compound I-394]  11 nM
40. C[C@@H](C(=O)O)[C@H](C)n1c(=O)cc(Nc2ccc(Oc3ccc(F)cn3)cc2)n(Cc2ccc(Cl)cc2)c1=O [Compound I-325]  11 nM
41. COC(=O)[C@H](C)[C@H](C)n1c(=O)cc(Nc2ccc(Oc3ccc(F)nc3)c(C)n2)n(Cc2ccc(Cl)cc2)c1=O [Compound I-338]  9 nM
42. O=C(O)c1cccc(Oc2ccc(/N=c3\[nH]cc(-c4ccccn4)c(=O)n3Cc3ccc(Cl)cc3)cc2)n1 [Compound I-480]  7 nM
43. COCCn1c(=O)cc(Nc2ccc(Oc3cccc(C#N)n3)c(C)n2)n(Cc2ccc(Cl)cc2)c1=O [Compound I-322]  5 nM
44. O=C(O)c1cccc(Oc2ccc(/N=c3\[nH]cc(-c4ccccc4)c(=O)n3Cc3ccc(Cl)cc3)cc2)n1 [Compound I-422]  3 nM
